Measured values as given in patent US20100196321A1, “COMPOUNDS” (GLAXOSMITHKLINE LLC, priority 2009, published 2010).

Experiments:
[1] = test system: sub-genomic HCV NS3-NS5B replicon of genotype 1a in Huh-7 cells; experiment: Replicon Luciferase Cell Based Assay, genotype 1a; design: species or system HCV genotype 1a; details: Hepatitis C virus, Huh-7, 48 hours
Experimental: (§1) A 10 mM stock solution in DMSO of each test compound was further diluted in DMSO in the first row of a 384-well, V-bottom microplate, to give 100 times the top concentration of the required dilution series. Dilutions of compound were prepared in 1:3 serial dilutions from the first row onwards robotically. A robot was also used to transfer 0.5 μL volumes from each dilution well into wells of white 384-well assay plates (Nunc #164610). Control wells received 0.5 μL of DMSO alone. Plates were made in duplicate for measuring HCV replication and cytotoxicity in the replicon cell lines.
(§2) Suspensions were prepared from cultures of Huh-7 cells stably transfected with sub-genomic HCV NS3—NS5B replicons of either genotype 1b (the ET subline described by Pietschmann, T., Lohmann, V., Kaul, A., Krieger, N., Rinck, G., Rutter, G., Strand, D. & Bartenschlager, R., Journal of Virology, 2002, 76, 4008-4021) or genotype 1a linked to a firefly luciferase reporter gene. Monolayers nearing confluency were stripped from growth flasks with versene-trypsin solution and the cells re-suspended in assay medium comprising DMEM (Invitrogen #11965-092) supplemented with 5% v/v foetal calf serum, 1% v/v non-essential amino acids solution, 100 units/ml penicillin, 100 μg/ml streptomycin and 2 mM GlutaMAX-1. 50 μL of suspension containing 5,000 cells of either genotype 1b or genotype 1a luciferase replicon were added to all wells, except medium controls, of the assay plate with a Multidrop Combi (Thermo Scientific Corporation) and the plate incubated for 48 hours at 37° C. in a 5% CO2 atmosphere. A solution of Steady-Glo cytolytic buffer/luciferase substrate (Promega #E2550) was prepared according to the manufacturer's instructions, and 20 μL were added to each well with a Multidrop Combi. To measure cytotoxicity, a solution of CellTiter-Glo Luminescent Cell Viability Assay reagent (Promega #G7573) was prepared according to the manufacturer's instructions, and 20 ul were added to each well with a Multidrop Combi. The plates were then read for luminescence on an Envision Multilabel Reader (Perkin Elmer)
(§3) Potency: The luminescence values from all compound-free wells containing cells were averaged to obtain a positive control value. The mean luminescence value from the compound-free wells that had received no cells was used to provide the negative (background) control value. After the subtraction of the mean background from all values, the readings from wells at each compound concentration were expressed as a percentage of the positive control signal. The quantifiable and specific reduction of luciferase signal in the presence of a drug is a direct measure of replicon inhibition. The BioAssay application and XC50 module were used to plot the curve of percentage inhibition against compound concentration and derive the 50% inhibitory concentration (IC50) for the compound.

[2] = test system: sub-genomic HCV NS3-NS5B replicon of genotype 1b (ET subline) in Huh-7 cells; experiment: Replicon Luciferase Cell Based Assay, genotype 1b; design: species or system HCV genotype 1b; details: Hepatitis C virus, Huh-7, 48 h, read-out: Genotype 1b (IC50 μM)
Experimental: as §1, §2, §3

Compound | IC50 [1] [µM] | IC50 [2] [µM]
COc1ccc2c(O[C@@H]3C[C@H]4C(=O)N[C@]5(C(=O)NS(=O)(=O)C6CC6)C[C@H]5/C=C\CCCCC[C@H](NC(=O)N5CCC(C)(C)C5)C(=O)N4C3)cc(-c3nc(C(C)C)cs3)nc2c1C [Example 36, (2R,6S,13aS,14aR,16aS,Z)-N-(cyclopropylsulfonyl)-6-(3,3-dimethylpyrrolidine-1-carboxamido)-2-(2-(4-isopropylthiazol-2-yl)-7-methoxy-8-methylquinolin-4-yloxy)-5,16-dioxo-1,2,3,5,6,7,8,9,10,11,13a,14,14a,15,16,16a-hexadecahydrocyclopropa[e]pyrrolo[1,2-a][1,4]diazacyclopentadecine-14a-carboxamide] | < 0.01 | < 0.01
CCN(CC)C(=O)N[C@H]1CCCCC/C=C\[C@@H]2C[C@@]2(C(=O)NS(=O)(=O)C2CC2)NC(=O)[C@@H]2C[C@@H](Oc3cc(-c4nc(C5CC5)cs4)nc4c(C)c(OC)ccc34)CN2C1=O [Example 26, (2R,6S,13aS,14aR,16aS,Z)-N-(cyclopropylsulfonyl)-2-(2-(4-cyclopropylthiazol-2-yl)-7-methoxy-8-methylquinolin-4-yloxy)-6-(3,3-diethylureido)-5,16-dioxo-1,2,3,5,6,7,8,9,10,11,13a,14,14a,15,16,16a-hexadecahydrocyclopropa[e]pyrrolo[1,2-a][1,4]diazacyclopentadecine-14a-carboxamide] | < 0.01 | < 0.01
CCN(C(=O)N[C@H]1CCCCC/C=C\[C@@H]2C[C@@]2(C(=O)NS(=O)(=O)C2CC2)NC(=O)[C@@H]2C[C@@H](Oc3cc(-c4nc(C5CC5)cs4)nc4c(C)c(OC)ccc34)CN2C1=O)C(C)C [Example 5, (2R,6S,13aS,14aR,16aS)-N-(cyclopropylsulfonyl)-2-{[2-(4-cyclopropyl-1,3-thiazol-2-yl)-8-methyl-7-(methyloxy)-4-quinolinyl]oxy}-6-({[ethyl(1-methylethyl)amino]carbonyl}amino)-5,16-dioxo-1,2,3,6,7,8,9,10,11,13a,14,15,16,16a-tetradecahydrocyclopropa[e]pyrrolo[1,2-a][1,4]diazacyclopentadecine-14a(5H)-carboxamide] | < 0.01 | < 0.01
COc1ccc2c(O[C@@H]3C[C@H]4C(=O)N[C@]5(C(=O)NS(=O)(=O)C6CC6)C[C@H]5/C=C\CCCCC[C@H](NC(=O)N5C[C@@H](C)O[C@@H](C)C5)C(=O)N4C3)cc(-c3nc(C(C)C)cs3)nc2c1C [Example 11, (2R,6S,13aS,14aR,16aS)-N-(cyclopropylsulfonyl)-6-({[(2R,6S)-2,6-dimethyl-4-morpholinyl]carbonyl}amino)-2-{[8-methyl-2-[4-(1-methylethyl)-1,3-thiazol-2-yl]-7-(methyloxy)-4-quinolinyl]oxy}-5,16-dioxo-1,2,3,6,7,8,9,10,11,13a,14,15,16,16a-tetradecahydrocyclopropa[e]pyrrolo[1,2-a][1,4]diazacyclopentadecine-14a(5H)-carboxamide] | < 0.01 | < 0.01
COc1ccc2c(O[C@@H]3C[C@H]4C(=O)N[C@]5(C(=O)NS(=O)(=O)C6CC6)C[C@H]5/C=C\CCCCC[C@H](NC(=O)N(C(C)C)C(C)C)C(=O)N4C3)cc(-c3nc(C4CC4)cs3)nc2c1C [Example 8, (2R,6S,13aS,14aR,16aS)-6-({[bis(1-methylethyl)amino]carbonyl}amino)-N-(cyclopropylsulfonyl)-2-{[2-(4-cyclopropyl-1,3-thiazol-2-yl)-8-methyl-7-(methyloxy)-4-quinolinyl]oxy}-5,16-dioxo-1,2,3,6,7,8,9,10,11,13a,14,15,16,16a-tetradecahydrocyclopropa[e]pyrrolo[1,2-a][1,4]diazacyclopentadecine-14a(5H)-carboxamide] | < 0.01 | < 0.01
COc1ccc2c(O[C@@H]3C[C@H]4C(=O)N[C@]5(C(=O)NS(=O)(=O)C6CC6)C[C@H]5/C=C\CCCCC[C@H](NC(=O)N5CC(F)(F)C5)C(=O)N4C3)cc(-c3nc(C4CC4)cs3)nc2c1C [Example 33, (2R,6S,13aS,14aR,16aS,Z)-N-(cyclopropylsulfonyl)-2-(2-(4-cyclopropylthiazol-2-yl)-7-methoxy-8-methylquinolin-4-yloxy)-6-(3,3-difluoroazetidine-1-carboxamido)-5,16-dioxo-1,2,3,5,6,7,8,9,10,11,13a,14,14a,15,16,16a-hexadecahydrocyclopropa[e]pyrrolo[1,2-a][1,4]diazacyclopentadecine-14a-carboxamide] | < 0.01 | < 0.01
CCN(CC)C(=O)N[C@H]1CCCCC/C=C\[C@@H]2C[C@@]2(C(=O)NS(=O)(=O)C2CC2)NC(=O)[C@@H]2C[C@@H](Oc3cc(-c4nc(C5CC5)cs4)nc4c(Cl)c(OC)ccc34)CN2C1=O [Example 4, (2R,6S,13aS,14aR,16aS,Z)-2-(8-chloro-2-(4-cyclopropylthiazol-2-yl)-7-methoxyquinolin-4-yloxy)-N-(cyclopropylsulfonyl)-6-(3,3-diethylureido)-5,16-dioxo-1,2,3,5,6,7,8,9,10,11,13a,14,14a,15,16,16a-hexadecahydrocyclopropa[e]pyrrolo[1,2-a][1,4]diazacyclopentadecine-14a-carboxamide] | < 0.01 | < 0.01
COc1ccc2c(O[C@@H]3C[C@H]4C(=O)N[C@]5(C(=O)NS(=O)(=O)C6CC6)C[C@H]5/C=C\CCCCC[C@H](NC(=O)N5CCC5)C(=O)N4C3)cc(-c3nc(C(C)C)cs3)nc2c1C [Example 18, (2R,6S,13aS,14aR,16aS)-6-[(1-azetidinylcarbonyl)amino]-N-(cyclopropylsulfonyl)-2-{[8-methyl-2-[4-(1-methylethyl)-1,3-thiazol-2-yl]-7-(methyloxy)-4-quinolinyl]oxy}-5,16-dioxo-1,2,3,6,7,8,9,10,11,13a,14,15,16,16a-tetradecahydrocyclopropa[e]pyrrolo[1,2-a][1,4]diazacyclopentadecine-14a(5H)-carboxamide] | < 0.01 | < 0.01
COc1ccc2c(O[C@@H]3C[C@H]4C(=O)N[C@]5(C(=O)NS(=O)(=O)C6CC6)C[C@H]5/C=C\CCCCC[C@H](NC(=O)N5CCCCC5)C(=O)N4C3)cc(-c3nc(C4CC4)cs3)nc2c1C [Example 31, (2R,6S,13aS,14aR,16aS,Z)-N-(cyclopropylsulfonyl)-2-(2-(4-cyclopropylthiazol-2-yl)-7-methoxy-8-methylquinolin-4-yloxy)-5,16-dioxo-6-(piperidine-1-carboxamido)-1,2,3,5,6,7,8,9,10,11,13a,14,14a,15,16,16a-hexadecahydrocyclopropa[e]pyrrolo[1,2-a][1,4]diazacyclopentadecine-14a-carboxamide] | < 0.01 | < 0.01
COc1ccc2c(O[C@@H]3C[C@H]4C(=O)N[C@]5(C(=O)NS(=O)(=O)C6CC6)C[C@H]5/C=C\CCCCC[C@H](NC(=O)N5CC(F)(F)C5)C(=O)N4C3)cc(-c3nc(C(C)C)cs3)nc2c1C [Example 35, (2R,6S,13aS,14aR,16aS,Z)-N-(cyclopropylsulfonyl)-6-(3,3-difluoroazetidine-1-carboxamido)-2-(2-(4-isopropylthiazol-2-yl)-7-methoxy-8-methylquinolin-4-yloxy)-5,16-dioxo-1,2,3,5,6,7,8,9,10,11,13a,14,14a,15,16,16a-hexadecahydrocyclopropa[e]pyrrolo[1,2-a][1,4]diazacyclopentadecine-14a-carboxamide] | < 0.01 | < 0.01
COc1ccc2c(O[C@@H]3C[C@H]4C(=O)N[C@]5(C(=O)NS(=O)(=O)C6CC6)C[C@H]5/C=C\CCCCC[C@H](NC(=O)N5CCCC5)C(=O)N4C3)cc(-c3nc(C4CC4)cs3)nc2c1C [Example 30, (2R,6S,13a-5,1-aR,16aS,Z)-N-(cyclopropylsulfonyl)-2-(2-(4-cyclopropylthiazol-2-yl)-7-methoxy-8-methylquinolin-4-yloxy)-5,16-dioxo-6-(pyrrolidine-1-carboxamido)-1,2,3,5,6,7,8,9,10,11,13a,14,14a,15,16,16a-hexadecahydrocyclopropa[e]pyrrolo[1,2-a][1,4]diazacyclopentadecine-14a-carboxamide] | < 0.01 | < 0.01
